These results are taken from PMC12155335, “Phenethyl Acetate as an Agonist of Insect Odorant Receptor Co-Receptor (Orco): Molecular Mechanisms and Functional Insights” (International Journal of Molecular Sciences, 2025).

For one experiment, the target named is T1, Or1a/Orco (Drosophila melanogaster, UniProt Q9VNB5+Q9W5G6).
T1 construct: expressed in transfected cells; host or cells: Xenopus laevis oocytes injected with in vitro transcribed mRNA (pGEM-HE)
T1 sequence (Q9W5G6 1-392): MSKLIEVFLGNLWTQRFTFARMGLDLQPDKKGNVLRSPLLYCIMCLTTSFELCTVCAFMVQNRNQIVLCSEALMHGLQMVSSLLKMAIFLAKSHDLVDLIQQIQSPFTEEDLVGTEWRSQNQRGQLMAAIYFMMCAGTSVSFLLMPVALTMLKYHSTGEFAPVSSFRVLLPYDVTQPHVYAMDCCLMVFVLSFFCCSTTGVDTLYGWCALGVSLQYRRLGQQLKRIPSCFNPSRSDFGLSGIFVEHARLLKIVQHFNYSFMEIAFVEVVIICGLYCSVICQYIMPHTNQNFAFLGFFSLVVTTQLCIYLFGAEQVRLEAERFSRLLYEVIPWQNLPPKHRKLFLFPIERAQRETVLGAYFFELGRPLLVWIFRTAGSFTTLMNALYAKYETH
T1 sequence (Q9VNB5 1-486): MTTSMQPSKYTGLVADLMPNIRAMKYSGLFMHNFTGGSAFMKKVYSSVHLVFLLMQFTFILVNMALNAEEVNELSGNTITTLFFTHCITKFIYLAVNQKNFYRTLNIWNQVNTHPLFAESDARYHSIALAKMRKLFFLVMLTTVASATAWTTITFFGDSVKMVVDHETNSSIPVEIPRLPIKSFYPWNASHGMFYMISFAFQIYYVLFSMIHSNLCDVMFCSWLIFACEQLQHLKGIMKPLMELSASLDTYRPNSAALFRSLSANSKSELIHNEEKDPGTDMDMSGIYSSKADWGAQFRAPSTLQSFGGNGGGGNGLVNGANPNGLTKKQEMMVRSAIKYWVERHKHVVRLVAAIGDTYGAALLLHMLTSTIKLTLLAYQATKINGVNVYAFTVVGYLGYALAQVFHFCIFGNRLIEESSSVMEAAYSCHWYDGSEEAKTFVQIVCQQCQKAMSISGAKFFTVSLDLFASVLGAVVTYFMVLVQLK
Nature of the experiment: Two-electrode voltage-clamp in Xenopus laevis oocytes expressing Or1a/Orco. Format: cell-based, D. melanogaster. The conditions noted are these: TEVC; for odorant-evoked inward current (activation): −80 mV, octanol 30 μM, PA 10 μM (Figure 2A). Here is the method: (§1) The D. melanogaster Or subunits (Or1a, Or24a, and Or35a) (FlyBase IDs: FBgn0029521, FBgn0026394, and FBgn0028946) and the odorant receptor co-receptor Orco (FlyBase ID: FBgn0037324) were synthesized as complementary DNA by Cosmogenetech (Seoul, Republic of Korea). The synthesized cDNA constructs were subcloned into the pGEM-HE expression vector. Plasmid transformation was performed using Escherichia coli DH5α competent cells, and recombinant plasmids were isolated using a miniprep protocol. The integrity of the cloned sequences was confirmed by Sanger sequencing. For complementary RNA synthesis, D. melanogaster Or1a, Or24a, Or35a, and Orco cDNA were linearized with appropriate restriction endonucleases, and digestion efficiency was verified via agarose gel electrophoresis. In vitro transcription was carried out using T7 RNA polymerase (mMESSAGE mMACHINE T7 Transcription Kit; Thermo Fisher Scientific, Waltham, MA, USA). The resulting mRNA was precipitated, resuspended in DEPC-treated water, and stored at −80 °C for subsequent experiments.
(§2) Xenopus laevis frogs were obtained from the Korean Xenopus Resource Center for Research (KXRCR000001, Gangwon, Republic of Korea). The isolation and maintenance of Xenopus oocytes followed the standardized protocols described by Pyeon et al. and complied with the ethical guidelines of Chonnam National University (CNU IACUC-YB-2016-07, July 2016). Microinjection of 50 ng of mRNA per oocyte was performed using a nanoliter injector (Drummond Scientific, Vernon Hills, IL, USA). Following injection, the oocytes were incubated at 18 °C in a shaking incubator to facilitate optimal protein expression before electrophysiological recordings.
(§3) The two-electrode voltage-clamp (TEVC) experiments were conducted following established protocols as described in Lee et al.. […]
(§4) All values are presented as the mean ± S.E.M. (standard error of the mean) following data analysis. Data collected using the two-electrode voltage-clamp technique were analyzed with SigmaPlot 10.0 software. […]
For orientation: In two-electrode clamp one electrode senses voltage and the other passes current.

A further experiment addresses T2, Or24a/Orco (Drosophila melanogaster, UniProt P81913+Q9VNB5).
T2 construct: expressed in transfected cells; host or cells: Xenopus laevis oocytes injected with in vitro transcribed mRNA (pGEM-HE)
T2 sequence (P81913 1-398): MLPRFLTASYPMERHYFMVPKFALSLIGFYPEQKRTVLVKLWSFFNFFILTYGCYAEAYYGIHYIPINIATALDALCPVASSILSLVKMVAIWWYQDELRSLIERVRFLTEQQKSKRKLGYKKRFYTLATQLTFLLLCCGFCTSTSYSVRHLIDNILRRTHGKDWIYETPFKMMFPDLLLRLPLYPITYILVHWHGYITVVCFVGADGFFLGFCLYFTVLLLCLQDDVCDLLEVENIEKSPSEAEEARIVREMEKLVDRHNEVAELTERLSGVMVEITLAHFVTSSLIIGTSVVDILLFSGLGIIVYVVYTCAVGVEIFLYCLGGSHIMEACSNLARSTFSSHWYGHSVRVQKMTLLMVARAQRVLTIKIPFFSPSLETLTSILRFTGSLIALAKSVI
T2 sequence (Q9VNB5 1-486): T1 sequence (Q9VNB5 1-486)
As to the kind of experiment: Two-electrode voltage-clamp in Xenopus laevis oocytes expressing Or24a/Orco. Format: cell-based, D. melanogaster. The conditions noted are these: TEVC; for odorant-evoked inward current (activation): −80 mV, octanol 10 μM, PA 10 μM (Figure 2B). Here is the method:
as §1, §2, §3, §4

For the next experiment, the target named is T3, Or35a/Orco (Drosophila melanogaster, UniProt Q9V3Q2+Q9VNB5).
T3 construct: expressed in transfected cells; host or cells: Xenopus laevis oocytes injected with in vitro transcribed mRNA (pGEM-HE)
T3 sequence (Q9V3Q2 1-409): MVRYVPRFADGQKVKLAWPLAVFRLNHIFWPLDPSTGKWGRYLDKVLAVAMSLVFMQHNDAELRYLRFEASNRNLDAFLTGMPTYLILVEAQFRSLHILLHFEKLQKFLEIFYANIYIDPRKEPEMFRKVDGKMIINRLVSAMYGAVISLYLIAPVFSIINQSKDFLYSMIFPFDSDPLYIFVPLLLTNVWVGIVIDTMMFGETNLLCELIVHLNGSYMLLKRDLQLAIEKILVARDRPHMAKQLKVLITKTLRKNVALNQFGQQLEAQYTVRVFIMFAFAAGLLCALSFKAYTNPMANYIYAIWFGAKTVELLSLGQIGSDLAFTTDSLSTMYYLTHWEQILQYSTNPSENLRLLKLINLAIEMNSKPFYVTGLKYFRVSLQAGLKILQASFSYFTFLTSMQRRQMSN
T3 sequence (Q9VNB5 1-486): T1 sequence (Q9VNB5 1-486)
Nature of the experiment: Two-electrode voltage-clamp in Xenopus laevis oocytes expressing Or35a/Orco. The format is cell-based, D. melanogaster. The conditions noted are these: TEVC; for odorant-evoked inward current (activation): −80 mV, octanol 10 μM, PA 10 μM (Figure 2C). Here is the method:
as §1, §2, §3, §4

Another experiment deals with T4, Orco homomers (Drosophila melanogaster, UniProt Q9VNB5).
T4 construct: expressed in transfected cells; host or cells: Xenopus laevis oocytes injected with Orco mRNA
T4 sequence (Q9VNB5 1-486): T1 sequence (Q9VNB5 1-486)
Nature of the experiment: Two-electrode voltage-clamp in Xenopus laevis oocytes expressing Orco homomers. Format: cell-based. The conditions noted are these: for odorant-evoked inward current (activation): Orco alone, −80 mV, octanol 10 μM, PA 10 μM (Figure 2D). Here is the method: as §1, §2
(§5) The two-electrode voltage-clamp (TEVC) experiments were conducted following established protocols as described in Lee et al.. This methodology ensures the accurate measurement of odorant receptor activation and has been widely used in previous studies on insect olfactory receptors. The molecular interaction between the odorant receptor (Or) and its ligand was examined using Or-expressing oocytes. Electrophysiological recordings were conducted with a two-electrode voltage-clamp system (OC-725C; Warner Instruments, Hamden, CT, USA) and digitized using a Digidata acquisition system (1322A; Molecular Devices, Sunnyvale, CA, USA). The oocyte membrane potential was clamped at −80 mV. Stock solutions of each compound were prepared by dissolving them in ND96 buffer (58.44 mM NaCl, 2 mM KCl, 1 mM MgCl2, 1.8 mM CaCl2, 5 mM HEPES, pH of 7.4) at the appropriate concentrations before use. […]
as §4

Another experiment deals with W146A Orco (Drosophila melanogaster, UniProt Q9VNB5, W150A). Nature of the experiment: Two-electrode voltage-clamp, W146A mutant Orco. The format is cell-based, D. melanogaster. Here is the method: as §2, §3
(§6) To validate the potential binding sites predicted by 3D protein–ligand docking simulations, molecular characterization was conducted through site-directed mutagenesis. […] The effect of these mutations on PA-binding affinity was evaluated through two-electrode voltage-clamp recordings.
as §4

For another experiment, the target named is E153A Orco (Drosophila melanogaster, UniProt Q9VNB5). Nature of the experiment: Two-electrode voltage-clamp, E153A mutant Orco. The format is cell-based, D. melanogaster. The following applies: TEVC. Here is the method:
as §2, §3, §6, §4

The subject of experiment [1] is double mutation (W146A + E153A) Orco. Nature of the experiment: Two-electrode voltage-clamp, double-mutant Orco. The format is cell-based, D. melanogaster. The following applies: TEVC (Figure 5). Here is the method: as §2, §3, §6, §4
In a further experiment the test system is uninjected oocytes. As to the kind of experiment: Two-electrode voltage-clamp control on uninjected oocytes. Format: cell-based, Xenopus laevis. The following applies: control experiment, TEVC. Here is the method: as §2
as §5, with “mV.” for “mV. Stock solutions of each compound were prepared by dissolving them in ND96 buffer (58.44 mM NaCl, 2 mM KCl, 1 mM MgCl2, 1.8 mM CaCl2, 5 mM HEPES, pH of 7.4) at the appropriate concentrations before use.”

The test system of experiment [2] is Or1a, Or24a, and Or35a co-expressed with mutant Orco. Nature of the experiment: Two-electrode voltage-clamp, Or1a, Or24a, Or35a co-expressed with mutant Orco. The format is cell-based, D. melanogaster. The following applies: TEVC, 10 µM octanol, mutant Orco co-expressed with Ors. Here is the method:
as §2
The two-electrode voltage-clamp (TEVC) experiments were conducted following established protocols as described in Lee et al.. This methodology ensures the accurate measurement of odorant receptor activation and has been widely used in previous studies on insect olfactory receptors. The molecular interaction between the odorant receptor (Or) and its ligand was examined using Or-expressing oocytes. […]
as §6

[3] abbreviates: Xenopus oocytes, holding potential −80 mV, mean ± SEM, read-out: half-maximal effective concentration (EC50).

W146A Orco, sequence (Q9VNB5 whole entry W150A): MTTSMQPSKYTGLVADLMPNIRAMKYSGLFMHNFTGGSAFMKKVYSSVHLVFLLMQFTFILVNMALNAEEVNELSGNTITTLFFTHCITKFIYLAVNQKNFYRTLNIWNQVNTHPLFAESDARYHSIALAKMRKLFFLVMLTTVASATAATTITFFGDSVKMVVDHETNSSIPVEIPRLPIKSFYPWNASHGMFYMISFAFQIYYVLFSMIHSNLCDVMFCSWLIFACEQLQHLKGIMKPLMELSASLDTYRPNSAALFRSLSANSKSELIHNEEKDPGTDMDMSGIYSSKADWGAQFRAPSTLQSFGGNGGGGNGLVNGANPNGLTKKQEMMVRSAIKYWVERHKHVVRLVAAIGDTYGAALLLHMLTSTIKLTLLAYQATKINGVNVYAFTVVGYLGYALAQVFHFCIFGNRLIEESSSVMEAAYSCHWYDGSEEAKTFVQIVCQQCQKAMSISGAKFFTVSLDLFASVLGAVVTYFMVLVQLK

`CC(=O)OCCc1ccccc1` [PA, phenethyl acetate]: the EC50 on Or1a/Orco (setting [3]) is 2.1 ± 1.2 µM; on Or24a/Orco (setting [3]) it was 2.8 ± 0.2 µM; on Or35a/Orco (setting [3]), 5.9 ± 1.1 µM; on Orco homomers (wild-type Orco homomers, TEVC, Xenopus oocytes, holding potential −80 mV, mean ± SEM, read-out: half-maximal effective concentration (EC50)), 0.4 ± 0.2 µM; at W146A Orco, 17.9 ± 2.1 µM; at E153A Orco (E153A Orco homomers, Xenopus oocytes, −80 mV), 12.8 ± 1.9 µM. The “odorant-evoked inward current (activation)” value at Or1a/Orco, on Or24a/Orco, on Or35a/Orco and on Orco homomers (TEVC) was “induced inward currents” throughout. Further, the “voltage dependence of activation (current–voltage relationship)” value at Orco homomers (voltage ramps, PA 0.3 µM and 3 µM, Orco homomeric receptor (Figure 3D)) was “voltage-independent activation”. Also, the “PA-induced currents versus wild type” value is recorded as “significantly reduced” at W146A Orco (single mutation W146A, TEVC, 10 µM PA (Figure 5)) and “significantly reduced” on E153A Orco (single mutation E153A, 10 µM PA (Figure 5)). Further, in experiment [1], the “PA activation versus wild type” value is reported as “nearly abolished”. Moreover, the “effect on uninjected oocytes” value in the experiment with uninjected oocytes is “no effect”.
On to `CCCCCCCCO` [octanol, reference compound], for which the “odorant-evoked inward current (activation)” value at Or1a/Orco is given as “induced robust inward currents”; at Or24a/Orco, “induced robust inward currents”; at Or35a/Orco, “induced robust inward currents”; on Orco homomers (TEVC) it was “failed to activate”. In addition, the “activation by octanol with mutant Orco” value in experiment [2] is “remained consistent”.
